Source: PubChem BioAssay (NCI)
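Grown in 96-well plates, cells were treated for 48 hours with each compound at five concentrations. Insufficient inhibition: endpoint recorded as highest concentration tested. TGI denotes the concentration required for complete inhibition of growth.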

Legend:
Test in all cases: inhibition of tumour cell growth, NCI panel, 48 h
MDA-MB-231 breast = test system: MDA-MB-231 breast
A498 renal = test system: A498 renal
SNB-75 CNS = test system: SNB-75 CNS
BT-549 breast = test system: BT-549 breast
A549 NSCLC = test system: A549 NSCLC
UACC-62 melanoma = test system: UACC-62 melanoma
OVCAR-3 ovarian = test system: OVCAR-3 ovarian
UO-31 renal = test system: UO-31 renal
M14 melanoma = test system: M14 melanoma
SF-539 CNS = test system: SF-539 CNS
HCT-116 colon = test system: HCT-116 colon
UACC-257 melanoma = test system: UACC-257 melanoma
SF-268 CNS = test system: SF-268 CNS
NCI-H460 lung = test system: NCI-H460 lung
SW-620 colon = test system: SW-620 colon
DU-145 prostate = test system: DU-145 prostate
EKVX NSCLC = test system: EKVX NSCLC
OVCAR-8 ovarian = test system: OVCAR-8 ovarian
HOP-62 NSCLC = test system: HOP-62 NSCLC
CAKI-1 renal = test system: CAKI-1 renal
786-0 renal = test system: 786-0 renal
MOLT-4 leukemia = test system: MOLT-4 leukemia
OVCAR-5 ovarian = test system: OVCAR-5 ovarian
NCI-H226 lung = test system: NCI-H226 lung
HCT-15 colon = test system: HCT-15 colon
MDA-N = test system: MDA-N
HT29 colon = test system: HT29 colon
SNB-19 CNS = test system: SNB-19 CNS
SN12C renal = test system: SN12C renal
OVCAR-4 ovarian = test system: OVCAR-4 ovarian
SR leukemia = test system: SR leukemia
MALME-3M melanoma = test system: MALME-3M melanoma
SK-MEL-2 melanoma = test system: SK-MEL-2 melanoma
HOP-92 NSCLC = test system: HOP-92 NSCLC
SK-MEL-28 melanoma = test system: SK-MEL-28 melanoma
SK-OV-3 ovarian = test system: SK-OV-3 ovarian
RPMI-8226 leukemia = test system: RPMI-8226 leukemia
RXF 393 renal = test system: RXF 393 renal
COLO 205 colon = test system: COLO 205 colon
HCC-2998 colon = test system: HCC-2998 colon
T-47D breast = test system: T-47D breast
TK-10 renal = test system: TK-10 renal
K-562 leukemia = test system: K-562 leukemia
IGROV1 ovarian = test system: IGROV1 ovarian
SF-295 CNS = test system: SF-295 CNS
NCI/ADR-RES ovarian = test system: NCI/ADR-RES ovarian
SK-MEL-5 melanoma = test system: SK-MEL-5 melanoma
MDA-MB-435 = test system: MDA-MB-435
HL-60(TB) leukemia = test system: HL-60(TB) leukemia
NCI-H23 lung = test system: NCI-H23 lung
ACHN renal = test system: ACHN renal
PC-3 prostate = test system: PC-3 prostate
NCI-H522 lung = test system: NCI-H522 lung
HS 578T breast = test system: HS 578T breast
CCRF-CEM leukemia = test system: CCRF-CEM leukemia
LOX IMVI melanoma = test system: LOX IMVI melanoma
KM12 colon = test system: KM12 colon
U251 CNS = test system: U251 CNS
MCF7 breast = test system: MCF7 breast
DMS 273 small cell lung = test system: DMS 273 small cell lung
LXFL 529 NSCLC = test system: LXFL 529 NSCLC
DMS 114 small cell lung = test system: DMS 114 small cell lung
SNB-78 CNS = test system: SNB-78 CNS
DLD-1 colon = test system: DLD-1 colon

SMILES: COc1cc(OCc2ccc3nc(OC)c(OC)nc3c2)cc(OC)c1OC
- TGI (MDA-MB-231 breast): > 10 µM
- TGI (A498 renal): > 10 µM
- TGI (SNB-75 CNS): > 10 µM
- TGI (BT-549 breast): > 6.32 µM
- TGI (A549 NSCLC): > 10 µM
- TGI (UACC-62 melanoma): > 10 µM
- TGI (OVCAR-3 ovarian): > 10 µM
- TGI (UO-31 renal): > 10 µM
- TGI (M14 melanoma): > 10 µM
- TGI (SF-539 CNS): > 10 µM
- TGI (HCT-116 colon): > 10 µM
- TGI (UACC-257 melanoma): > 10 µM
- TGI (SF-268 CNS): > 10 µM
- TGI (NCI-H460 lung): > 10 µM
- TGI (SW-620 colon): > 10 µM
- TGI (DU-145 prostate): > 10 µM
- TGI (EKVX NSCLC): > 10 µM
- TGI (OVCAR-8 ovarian): > 10 µM
- TGI (HOP-62 NSCLC): > 10 µM
- TGI (CAKI-1 renal): > 10 µM
- TGI (786-0 renal): > 10 µM
- TGI (MOLT-4 leukemia): > 10 µM
- TGI (OVCAR-5 ovarian): > 10 µM
- TGI (NCI-H226 lung): > 10 µM
- TGI (HCT-15 colon): > 10 µM
- TGI (MDA-N): > 10 µM
- TGI (HT29 colon): > 10 µM
- TGI (SNB-19 CNS): > 10 µM
- TGI (SN12C renal): > 10 µM
- TGI (OVCAR-4 ovarian): > 10 µM
- TGI (SR leukemia): > 10 µM
- TGI (MALME-3M melanoma): > 10 µM
- TGI (SK-MEL-2 melanoma): > 2.29 µM
- TGI (HOP-92 NSCLC): > 10 µM
- TGI (SK-MEL-28 melanoma): > 10 µM
- TGI (SK-OV-3 ovarian): > 10 µM
- TGI (RPMI-8226 leukemia): > 10 µM
- TGI (RXF 393 renal): > 10 µM
- TGI (COLO 205 colon): > 10 µM
- TGI (HCC-2998 colon): > 10 µM
- TGI (T-47D breast): > 10 µM
- TGI (TK-10 renal): > 10 µM
- TGI (K-562 leukemia): > 10 µM
- TGI (IGROV1 ovarian): > 10 µM
- TGI (SF-295 CNS): > 10 µM
- TGI (NCI/ADR-RES ovarian): > 10 µM
- TGI (SK-MEL-5 melanoma): > 10 µM
- TGI (MDA-MB-435): > 10 µM
- TGI (HL-60(TB) leukemia): > 10 µM
- TGI (NCI-H23 lung): > 10 µM
- TGI (ACHN renal): > 10 µM
- TGI (PC-3 prostate): > 4.95 µM
- TGI (NCI-H522 lung): > 10 µM
- TGI (HS 578T breast): > 10 µM
- TGI (CCRF-CEM leukemia): > 10 µM
- TGI (LOX IMVI melanoma): > 10 µM
- TGI (KM12 colon): > 10 µM
- TGI (U251 CNS): > 10 µM
- TGI (MCF7 breast): > 10 µM

SMILES: CN(C)CCSc1nccc(-c2cc3ccccc3s2)n1
- TGI (A498 renal): 58.3 µM
- TGI (SNB-75 CNS): > 100 µM
- TGI (A549 NSCLC): 36.6 µM
- TGI (UACC-62 melanoma): 40.4 µM
- TGI (DMS 273 small cell lung): 34.1 µM
- TGI (OVCAR-3 ovarian): > 100 µM
- TGI (UO-31 renal): 47.6 µM
- TGI (M14 melanoma): 32.3 µM
- TGI (SF-539 CNS): 37.2 µM
- TGI (HCT-116 colon): 50.9 µM
- TGI (NCI-H460 lung): 28 µM
- TGI (LXFL 529 NSCLC): 30.9 µM
- TGI (SW-620 colon): 36.7 µM
- TGI (OVCAR-8 ovarian): 65 µM
- TGI (HOP-62 NSCLC): 52.7 µM
- TGI (CAKI-1 renal): 56.7 µM
- TGI (786-0 renal): 63.4 µM
- TGI (MOLT-4 leukemia): 66.1 µM
- TGI (OVCAR-5 ovarian): 82.4 µM
- TGI (NCI-H226 lung): 38 µM
- TGI (HCT-15 colon): 37.6 µM
- TGI (HT29 colon): 24.3 µM
- TGI (DMS 114 small cell lung): 51.6 µM
- TGI (SN12C renal): > 100 µM
- TGI (OVCAR-4 ovarian): 82.2 µM
- TGI (SR leukemia): 63.4 µM
- TGI (MALME-3M melanoma): 36 µM
- TGI (SK-MEL-2 melanoma): 33.5 µM
- TGI (HOP-92 NSCLC): 33.5 µM
- TGI (SK-MEL-28 melanoma): 40.9 µM
- TGI (SK-OV-3 ovarian): 94.9 µM
- TGI (SNB-78 CNS): 47.8 µM
- TGI (DLD-1 colon): > 100 µM
- TGI (RXF 393 renal): 56 µM
- TGI (COLO 205 colon): 35.1 µM
- TGI (HCC-2998 colon): 29.3 µM
- TGI (IGROV1 ovarian): > 100 µM
- TGI (SF-295 CNS): 31 µM
- TGI (SK-MEL-5 melanoma): 27.9 µM
- TGI (NCI-H522 lung): 36.7 µM
- TGI (CCRF-CEM leukemia): 59.4 µM
- TGI (LOX IMVI melanoma): 32.2 µM
- TGI (KM12 colon): 48.2 µM
- TGI (U251 CNS): 57.1 µM

SMILES: CC1=C[C@@H](C)C[C@]2(C)CC[C@H](O2)[C@]23CC[C@](C(=O)O)(C[C@H](O2)[C@@H]2O[C@@](C)(CC2=O)[C@@H](O)[C@H]2CC[C@@]4(CCC[C@@H](O4)[C@H](C)C(=O)O[C@H]4C[C@H]([C@]5(O)OCC[C@H](C)[C@@H]5O)O[C@H]4C=C1)O2)O3
- TGI (MDA-MB-231 breast): > 10 µM
- TGI (A498 renal): > 10 µM
- TGI (SNB-75 CNS): > 6.85 µM
- TGI (BT-549 breast): > 10 µM
- TGI (A549 NSCLC): > 10 µM
- TGI (UACC-62 melanoma): > 10 µM
- TGI (OVCAR-3 ovarian): > 10 µM
- TGI (UO-31 renal): > 10 µM
- TGI (M14 melanoma): > 10 µM
- TGI (SF-539 CNS): > 10 µM
- TGI (HCT-116 colon): > 10 µM
- TGI (UACC-257 melanoma): > 10 µM
- TGI (SF-268 CNS): > 10 µM
- TGI (NCI-H460 lung): > 10 µM
- TGI (SW-620 colon): > 10 µM
- TGI (DU-145 prostate): > 10 µM
- TGI (EKVX NSCLC): > 10 µM
- TGI (OVCAR-8 ovarian): > 10 µM
- TGI (HOP-62 NSCLC): > 10 µM
- TGI (CAKI-1 renal): > 10 µM
- TGI (786-0 renal): > 10 µM
- TGI (MOLT-4 leukemia): > 10 µM
- TGI (OVCAR-5 ovarian): > 10 µM
- TGI (NCI-H226 lung): > 10 µM
- TGI (HCT-15 colon): > 10 µM
- TGI (MDA-N): > 10 µM
- TGI (HT29 colon): > 10 µM
- TGI (SNB-19 CNS): > 10 µM
- TGI (SN12C renal): > 10 µM
- TGI (OVCAR-4 ovarian): > 10 µM
- TGI (SR leukemia): > 10 µM
- TGI (MALME-3M melanoma): > 10 µM
- TGI (SK-MEL-2 melanoma): > 10 µM
- TGI (HOP-92 NSCLC): > 8.25 µM
- TGI (SK-MEL-28 melanoma): > 10 µM
- TGI (SK-OV-3 ovarian): > 10 µM
- TGI (RPMI-8226 leukemia): > 10 µM
- TGI (RXF 393 renal): > 10 µM
- TGI (COLO 205 colon): > 10 µM
- TGI (HCC-2998 colon): > 10 µM
- TGI (T-47D breast): > 10 µM
- TGI (TK-10 renal): > 10 µM
- TGI (K-562 leukemia): > 10 µM
- TGI (IGROV1 ovarian): > 10 µM
- TGI (SF-295 CNS): > 10 µM
- TGI (NCI/ADR-RES ovarian): > 10 µM
- TGI (SK-MEL-5 melanoma): > 10 µM
- TGI (MDA-MB-435): > 10 µM
- TGI (HL-60(TB) leukemia): > 10 µM
- TGI (NCI-H23 lung): > 10 µM
- TGI (ACHN renal): > 10 µM
- TGI (PC-3 prostate): > 10 µM
- TGI (NCI-H522 lung): > 10 µM
- TGI (HS 578T breast): > 5.94 µM
- TGI (CCRF-CEM leukemia): > 10 µM
- TGI (LOX IMVI melanoma): > 10 µM
- TGI (KM12 colon): > 10 µM
- TGI (U251 CNS): > 10 µM
- TGI (MCF7 breast): > 10 µM
